Laboratory results from patent publication US4379148A, “Analgesic and anti-inflammatory composition” (priority 1981, dated 1983).

Assays:
[1] = combination with 100 mg/kg of emorfazone; in words
Method: Female Sprague-Dawley rats (180-220 g) were used. […] On day 0 of the test, the adjuvant containing 0.6 mg of Mycobacterium butylicum (Difco) in 0.1 ml of liquid paraffin was injected into the plantar surface of the right hind paw. The test drugs were administered orally once a day for 15 days. The severity of inflammation of the 4 paws and the tail of each rat was evaluated visually at day 30 and scored by a point system. The grading for each lesion was on a 0 to 3 scale with 0 indicating absence of inflammation and 3 indicating maximum inflammation.

[2] = Analgesic Test by Randall-Selitto Method (carrageenin inflammatory pain); format: in vivo, Male Wistar rats; settings: for ED50: Rattus norvegicus, po, read-out: ED50 (dose that increased the mean pain threshold of the control group by 50%), drug alone; for ED50 dose obtained experimentally, with emorfazone 4.5 / theoretical additive ED50 dose, with emorfazone 4.5 / ED50 dose obtained experimentally, with emorfazone 9 / theoretical additive ED50 dose, with emorfazone 9: p.o.; for ED50 dose obtained experimentally, with emorfazone 4.5 / theoretical additive ED50 dose, with emorfazone 4.5: combined with emorfazone 4.5 mg/kg; for ED50 dose obtained experimentally, with emorfazone 9 / theoretical additive ED50 dose, with emorfazone 9: combined with emorfazone 9 mg/kg
Method: Male Wistar rats (120-140 g) fasted for 18 hours were divided into test groups and a control group of 5 animals per group. […] The pain threshold was measured after the carrageenin injection at hourly intervals for 3 hours with an analgesy meter (Ugo Basile, Milan).

[3] = p.o., combined with emorfazone 240 mg/kg
[4] = Analgesic Test by Phenylquinone Writhing Method; format: in vivo, Male ddY mice; settings: for ED50: Mus musculus, po, read-out: ED50 (dose that reduced the number of writhes of the control group by 50%), drug alone; for combined analgesic effect with emorfazone: combination with emorfazone, in words; for ED50 dose obtained experimentally, with emorfazone 10 / theoretical additive ED50 dose, with emorfazone 10 / ED50 dose obtained experimentally, with emorfazone 20 / theoretical additive ED50 dose, with emorfazone 20: p.o.; for ED50 dose obtained experimentally, with emorfazone 10: combined with emorfazone 10 mg/kg (1/4 of its ED50); for theoretical additive ED50 dose, with emorfazone 10: combined with emorfazone 10 mg/kg; for ED50 dose obtained experimentally, with emorfazone 20: combined with emorfazone 20 mg/kg (1/2 of its ED50); for theoretical additive ED50 dose, with emorfazone 20: combined with emorfazone 20 mg/kg
Method: Male ddY mice (18-22 g) fasted for 18 hours were divided into test groups and a control group of 7 animals per group. […] The number of writhes was counted for 20 minutes after the p-phenylquinone injection.

[5] = Anti-inflammatory Test by Whittle's Method (acetic acid, dye in peritoneal exudate); format: in vivo, Male ddY mice; settings: for ED30: Mus musculus, po, read-out: ED30 (dose which decreased the amount of dye of the control group by 30%), drug alone; for ED30 dose obtained experimentally, with emorfazone 28.8 / theoretical additive ED30 dose, with emorfazone 28.8 / ED30 dose obtained experimentally, with emorfazone 86 / theoretical additive ED30 dose, with emorfazone 86: p.o.; for ED30 dose obtained experimentally, with emorfazone 28.8 / theoretical additive ED30 dose, with emorfazone 28.8: combined with emorfazone 28.8 mg/kg; for ED30 dose obtained experimentally, with emorfazone 86 / theoretical additive ED30 dose, with emorfazone 86: combined with emorfazone 86 mg/kg
Method: Male ddY mice (18-22 g) fasted for 18 hours were divided into test groups and a control group of 7 or 8 animals each. […] Ten minutes later, 10 ml/kg of 0.7% acetic acid dissolved in physiological saline was injected intraperitoneally into all animals and 20 minutes thereafter the animals were sacrificed. The amount of the dye in the peritoneal exudate was determined at 590 nm by using a spectrophotometer (Hitachi Instrument Co.). The ED30 was defined as the dose which decreased the amount of dye of the control group by 30%, and was determined graphically.

[6] = in vivo; settings: mouse, po

SMILES | inhibitory effect in combination with emorfazone [1] | ED50 [2] | ED50 dose obtained experimentally, with emorfazone 4.5 [2] | theoretical additive ED50 dose, with emorfazone 4.5 [2] | ED50 dose obtained experimentally, with emorfazone 9 [2] | theoretical additive ED50 dose, with emorfazone 9 [2] | theoretical additive LD50 dose, with emorfazone 240 [3] | ED50 [4] | combined analgesic effect with emorfazone [4] | ED50 dose obtained experimentally, with emorfazone 10 [4] | theoretical additive ED50 dose, with emorfazone 10 [4] | ED50 dose obtained experimentally, with emorfazone 20 [4] | theoretical additive ED50 dose, with emorfazone 20 [4] | ED30 [5] | ED30 dose obtained experimentally, with emorfazone 28.8 [5] | theoretical additive ED30 dose, with emorfazone 28.8 [5] | ED30 dose obtained experimentally, with emorfazone 86 [5] | theoretical additive ED30 dose, with emorfazone 86 [5] | LD50 at 168 h [6] | LD50 at 168 h ([6]; LD50 dose obtained experimentally, with emorfazone 240, p.o., combined with emorfazone 240 mg/kg)
CC(C)Cc1ccc(C(C)C(=O)O)cc1 (stereo not drawn) [Ibuprofen] | significantly potentiated | 120 mg/kg | 10 mg/kg | 90 mg/kg | 8 mg/kg | 60 mg/kg | 862.5 mg/kg | 13.5 mg/kg | for the most part a synergistic response | 8 mg/kg | 10.1 mg/kg | 3 mg/kg | 6.8 mg/kg | 76 mg/kg | 56 mg/kg | 57 mg/kg | 37 mg/kg | 38 mg/kg |  | 
CC(C(=O)O)c1cccc(C(=O)c2ccccc2)c1 (stereo not drawn) [Ketoprofen] | significantly potentiated | 6 mg/kg | 3 mg/kg | 4.5 mg/kg | 1 mg/kg | 3 mg/kg |  | 0.5 mg/kg | for the most part a synergistic response | 0.37 mg/kg | 0.38 mg/kg | 0.23 mg/kg | 0.25 mg/kg | 3.2 mg/kg | 2.2 mg/kg | 2.4 mg/kg | 1.3 mg/kg | 1.6 mg/kg | 305 mg/kg | 380 mg/kg
COc1ccc2cc([C@H](C)C(=O)O)ccc2c1 [Naproxen] | significantly potentiated | 240 mg/kg | 160 mg/kg | 180 mg/kg | 60 mg/kg | 120 mg/kg |  | 9 mg/kg | for the most part a synergistic response | 6.2 mg/kg | 6.3 mg/kg | 4.1 mg/kg | 4.5 mg/kg | 12 mg/kg | 8.5 mg/kg | 9 mg/kg | 5.8 mg/kg | 6 mg/kg |  | 
